Experimental data from US20230286983A1 (4E Therapeutics, Inc., priority 2020, published 2023).

Legend:
IL-6 evoked grimace = IL-6 evoked grimace test; type: in vivo, ICR mice
Experimental: Institute for Cancer Research (ICR) mice were used in these experiments. Mice were bred in house at University of Texas at Dallas and used at between 12 and 24 weeks of age. Mice were habituated to plexiglass boxes of approximately 4×6 inches in size with openable tops. Habituation took place over 2 days with animals exposed to the boxes for at least 30 min. A blinded observer scored baseline grimacing using the method previously described by Mogil and colleagues (Langford, et al., Coding of facial expressions of pain in the laboratory mouse. Nat Methods (2010) 7:447-449.). On test day, mice were given test compounds 1 hr prior to injection of interleukin 6 (human recombinant IL-6, R&D Systems) which was given at a dose of 0.1 ng in saline via an intraplantar injection as described previously (Moy et al. The MNK-eIF4E Signaling Axis Contributes to Injury-Induced Nociceptive Plasticity and the Development of Chronic Pain. J Neurosci (2017) 37:7481-7499.). Test compounds were given orally (PO) via a flexible oral gavage canula built for mice. 4ET-01-021 (10.0, 3.0, and 1.0 mg/kg) and 4ET-03-052B (10.0 mg/kg) are efficacious in the IL-6 evoked grimace test in mice. FIG. 5 depicts a comparison of effect size in the IL-6 evoked grimace test. Effect sizes were calculated per mouse by subtracting the baseline grimace score from the sum of the grimace scores for 1 and 3 hr time points. […] FIG. 6 is a graph showing the effect size in the IL-6 evoked grimace test vs. dose of 4ET-01-021.

[1] = tested on: eIF4E phosphorylation at Serine 209 in Karpas 299; experiment: eIF4E phosphorylation in Karpas 299 cells (sandwich ELISA); type: cell-based; settings: Homo sapiens, read-out: Karpas 299 cell IC50
Experimental: The ability of MNK inhibitors described herein to inhibit eIF4E phosphorylation at Serine 209 in Karpas 299, Human Non-Hodgkin's Ki-positive Large Cell Lymphoma cell line was tested by sandwich enzyme linked immune-absorbance assay.

p-eIF4E = experiment: Western blot of eIF4E and p-eIF4E in tissues, 4ET-03-009; type: in vivo, mice; settings: 10 mg/kg oral, 2 hours after dosing, vs vehicle
Experimental: In separate mice administered the same therapy, 2 hours after dosing tissues were harvested from the sciatic nerve, liver, brain, and DRG and homogenized, then subjected to Western blot analysis for eIF4E and p-eIF4E. Control mice administered only the solvent vehicle with no MNK inhibitor were also assayed. Amounts of p-eIF4E in each tissue based on the mean for all three mice administered the therapeutic and based on the mean for all three control mice are presented in FIG. 2, right panel. […] Units on the y-axis are % of signal standardized to the control.

[2] = Liver microsome stability, rat; type: in vitro ADME; settings: Rat liver microsomes (#)
[3] = Liver microsome stability, human; type: in vitro ADME; settings: liver microsomes
[4] = molecular target: T1, death-associated protein kinase-related apoptosis-inducing protein kinase 1 (DRAK1) (Homo sapiens, UniProt Q9UEE5); experiment: Off-target kinase screen DRAK1; type: biochemical; settings: 1 μM test compound
T1 sequence (Q9UEE5 1-414): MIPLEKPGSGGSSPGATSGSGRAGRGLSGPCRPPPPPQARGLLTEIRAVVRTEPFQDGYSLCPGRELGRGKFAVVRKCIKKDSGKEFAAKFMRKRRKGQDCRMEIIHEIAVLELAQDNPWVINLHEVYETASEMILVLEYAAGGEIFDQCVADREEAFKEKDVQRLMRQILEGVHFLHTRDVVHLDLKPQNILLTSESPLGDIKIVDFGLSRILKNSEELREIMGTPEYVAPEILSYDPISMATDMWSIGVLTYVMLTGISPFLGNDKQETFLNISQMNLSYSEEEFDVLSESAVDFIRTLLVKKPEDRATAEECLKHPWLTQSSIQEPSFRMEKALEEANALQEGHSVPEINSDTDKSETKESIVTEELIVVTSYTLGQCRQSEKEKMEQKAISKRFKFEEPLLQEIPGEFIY
Text: (§1) These kinases were chosen because they are the only known off-target hit kinases for eFT508. These assays were done using recombinant human kinases (CLK4, DRAK1 and PKG2) in a substrate phosphorylation assay. % activity remaining after MNK inhibitor treatment is indicated in Table 12.

[5] = molecular target: T2, protein kinase G 2 (PKG2) (Homo sapiens, UniProt Q13237); experiment: Off-target kinase screen PKG2; type: biochemical; settings: 1 μM test compound
T2 sequence (Q13237 1-762): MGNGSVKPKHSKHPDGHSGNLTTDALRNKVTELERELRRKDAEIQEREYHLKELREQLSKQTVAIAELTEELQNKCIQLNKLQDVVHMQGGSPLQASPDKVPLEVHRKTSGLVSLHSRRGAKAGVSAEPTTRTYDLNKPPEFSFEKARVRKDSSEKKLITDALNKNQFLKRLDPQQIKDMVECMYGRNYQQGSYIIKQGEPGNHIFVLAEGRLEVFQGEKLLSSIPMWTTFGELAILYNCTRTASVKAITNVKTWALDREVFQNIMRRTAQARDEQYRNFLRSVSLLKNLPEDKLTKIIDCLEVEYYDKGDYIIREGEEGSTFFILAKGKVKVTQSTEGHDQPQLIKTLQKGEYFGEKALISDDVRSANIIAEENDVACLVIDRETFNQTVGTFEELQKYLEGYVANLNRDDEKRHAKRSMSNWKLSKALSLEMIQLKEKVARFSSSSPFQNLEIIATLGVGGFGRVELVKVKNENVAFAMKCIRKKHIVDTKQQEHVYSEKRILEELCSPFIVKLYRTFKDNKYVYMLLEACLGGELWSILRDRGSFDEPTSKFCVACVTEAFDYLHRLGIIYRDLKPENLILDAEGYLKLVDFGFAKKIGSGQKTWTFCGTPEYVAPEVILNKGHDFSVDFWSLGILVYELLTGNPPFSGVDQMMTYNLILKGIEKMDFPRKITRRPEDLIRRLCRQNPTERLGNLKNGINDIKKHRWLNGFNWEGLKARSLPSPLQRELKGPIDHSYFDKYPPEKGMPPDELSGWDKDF
Text: as §1

SMILES	ED50 (IL-6 evoked grimace; Mus musculus, PO, effect size vs. dose)	efficacy in the IL-6 evoked grimace test (IL-6 evoked grimace; PO 1 hr prior to IL-6, 4ET-01-021 10.0, 3.0 and 1.0 mg/kg, 4ET-03-052B 10.0 mg/kg)	effect size in the IL-6 evoked grimace test (IL-6 evoked grimace; sum of grimace scores at 1 and 3 hr minus baseline)	IC50 [1]	p-eIF4E in sciatic nerve, liver, brain and DRG (p-eIF4E)	microsomal CLint ([2]; read-out: CLint rodent)	half-life ([2]; read-out: Rodent liver microsomes t1/2)	microsomal CLint [3]	half-life ([3]; read-out: Human liver microsomes t1/2)	remaining activity at 1 µM [4]	remaining activity at 1 µM [5]
CCC1=CC2(CCC1)NC(=O)c1c(C)cc(Nc3cc(N)ncn3)c(=O)n12 (centres unmarked) [Compound 4ET-01-021, 6′-((6-Aminopyrimidin-4-yl)amino)-3-ethyl-8′-methyl-2′H-spiro[cyclohexane-1,3′-imidazo[1,5-a]pyridin]-2-ene-1′,5′-dione]	0.4 mg/kg	efficacious	statistically-significant effect sizes								
Cc1cc(Nc2cc(NC(=O)C3CC3)ncn2)c(=O)n2c1C(=O)NC21CCOCC1 [Compound 4ET-03-009, N-(6-((8-Methyl-1,5-dioxo-1,2′,3′,5,5′,6′-hexahydro-2H-spiro[imidazo[1,5-a]pyridine-3,4′-pyran]-6-yl)amino)pyrimidin-4-yl)cyclopropanecarboxamide]				6.2 nM	significantly decreased peIF4E in all tissues assayed	2.54 µL/min/mg	9.08 h	2.16 µL/min/mg	10.7 h	16%	99%
